Results from patent publication US20120101160A1, “Use of chemical chaperones to treat glaucoma caused by misfolded or misprocessed proteins” (Alcon, Inc., priority 2004, published 2012).

What was measured:
mutant (Q368X) myocilin = biological target: T1, mutant (Q368X) myocilin (Homo sapiens, UniProt Q99972); assay: secretion of mutant myocilin in cultured CHO cells (Western blot of media and lysates); type: cell-based; conditions: CHO stable transfectants expressing Q368X myocilin; overnight incubation with chemical chaperone; glycerol 10%; E and I lanes; FIG. 1/FIG. 2
T1 construct: expressed in transfected cells
T1 sequence (Q99972 33-367 limits assumed): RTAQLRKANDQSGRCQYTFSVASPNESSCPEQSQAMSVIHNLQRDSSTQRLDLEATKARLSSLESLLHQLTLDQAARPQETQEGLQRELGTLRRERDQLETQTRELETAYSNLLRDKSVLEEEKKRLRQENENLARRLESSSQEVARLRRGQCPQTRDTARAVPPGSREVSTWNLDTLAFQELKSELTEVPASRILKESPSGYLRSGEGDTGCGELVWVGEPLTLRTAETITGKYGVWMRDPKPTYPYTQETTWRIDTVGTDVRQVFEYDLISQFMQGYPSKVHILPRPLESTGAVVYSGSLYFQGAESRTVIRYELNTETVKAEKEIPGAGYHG
Source text: (§1) Wild-type myocilin is normally expressed and secreted from the human TM, whereas mutant disease-causing myocilin is retained intracellularly (Jacobson, Andrews et al. 2001). […] We tested several compounds for their ability to effect secretion of mutant myocilin in cultured CHO cells that were engineered for their ability to express, but not secrete, mutant (Y437H or Q368X) myocilin. Plasmids expressing wild-type or mutant myocilin were generated as described (Jacobson, Andrews et al. 2001).
(§2) CHO stable transfectants were grown in F12K media containing 10% FBS supplemented with penicillin-streptomycin-glutamine. Stable transfectants were generated by transfection with lipofectamine plus (Invitrogen) followed by limiting dilution plating and selection in G-418 (600 ug/ml). CHO cells were incubated with serum-free media 24 h post-transfection and media or cell lysates were collected after overnight incubation with the chemical chaperone. Equivalent cell lysate protein amounts (5 ug) were loaded for SDS-PAGE analysis. Cell media was not concentrated and was loaded at 16 ul per lane for SDS-PAGE/Western blot analysis.
(§3) Cells were rinsed with PBS and solubilized in a commercial mammalian extraction buffer (M-Per™; Pierce, Rockford, Ill.) supplemented with a protease inhibitor cocktail (Complete, EDTA-free; Boehringer Mannheim, Indianapolis, Ind.) followed by centrifugation at 12,000×g for 5 min. Protein concentration of the supernatant was determined with Coomasie Plus Protein Assay Reagent (Pierce). Cell extracts were stored at −20° C.
(§4) Cell media or extracts were analyzed using pre-cast NuPAGE polyacrylamide gels and the Novex gel electrophoresis system (Novex, San Diego, Calif.). Proteins were electroblotted to Hybond-P PVDF membranes (Amersham Pharmacia Biotech, Piscataway, N.J.), blocked with gelatin, and probed with affinity purified rabbit anti-MYOC antibody 129 (generated to myocilin peptide 156-171) (Jacobson, Andrews et al. 2001) and an anti-rabbit IgG secondary antibody (Amersham). Immunoreactivity was detected with the ECL Plus detection system (Amersham). Blots were exposed to BioMax MR film (Eastman Kodak, Rochester, N.Y.) and scanned with a Hewlett-Packard ScanJet ADF scanner (Hewlett Packard, Boise, Id.) for figure presentation.

mutant (Y437H) myocilin = biological target: T2, mutant (Y437H) myocilin (Homo sapiens, UniProt Q99972, Y437H); assay: as above; type: cell-based; conditions: CHO stable transfectants expressing Y437H myocilin; overnight incubation with chemical chaperone; glycerol 10%; E lane; FIG. 1/FIG. 2
T2 construct: expressed in transfected cells
T2 sequence (Q99972 33-504 Y437H): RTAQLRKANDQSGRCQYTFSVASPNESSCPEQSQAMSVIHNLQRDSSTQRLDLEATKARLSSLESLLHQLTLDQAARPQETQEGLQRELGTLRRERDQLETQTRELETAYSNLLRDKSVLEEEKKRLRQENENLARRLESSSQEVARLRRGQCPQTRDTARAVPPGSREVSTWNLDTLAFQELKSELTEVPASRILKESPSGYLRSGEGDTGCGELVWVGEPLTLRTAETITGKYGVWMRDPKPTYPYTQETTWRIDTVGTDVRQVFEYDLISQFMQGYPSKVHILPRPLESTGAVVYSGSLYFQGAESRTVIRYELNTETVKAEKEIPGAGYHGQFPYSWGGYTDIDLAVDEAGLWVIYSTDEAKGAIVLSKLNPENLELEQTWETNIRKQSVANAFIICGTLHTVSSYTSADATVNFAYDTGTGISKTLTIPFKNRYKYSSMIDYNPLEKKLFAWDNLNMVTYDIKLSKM
Source text: as §1, §2, §3, §4

[1] = biological target: ΔF508 cystic fibrosis transmembrane conductance regulator protein (CFTR) (Homo sapiens, UniProt P13569, DEL508-508); conditions: cells expressing ΔF508 CFTR; similar to cells expressing the wild-type CFTR protein; cited from earlier work
Sequence of ΔF508 cystic fibrosis transmembrane conductance regulator protein (CFTR) (P13569 with tags, fused parts or gaps DEL508-508): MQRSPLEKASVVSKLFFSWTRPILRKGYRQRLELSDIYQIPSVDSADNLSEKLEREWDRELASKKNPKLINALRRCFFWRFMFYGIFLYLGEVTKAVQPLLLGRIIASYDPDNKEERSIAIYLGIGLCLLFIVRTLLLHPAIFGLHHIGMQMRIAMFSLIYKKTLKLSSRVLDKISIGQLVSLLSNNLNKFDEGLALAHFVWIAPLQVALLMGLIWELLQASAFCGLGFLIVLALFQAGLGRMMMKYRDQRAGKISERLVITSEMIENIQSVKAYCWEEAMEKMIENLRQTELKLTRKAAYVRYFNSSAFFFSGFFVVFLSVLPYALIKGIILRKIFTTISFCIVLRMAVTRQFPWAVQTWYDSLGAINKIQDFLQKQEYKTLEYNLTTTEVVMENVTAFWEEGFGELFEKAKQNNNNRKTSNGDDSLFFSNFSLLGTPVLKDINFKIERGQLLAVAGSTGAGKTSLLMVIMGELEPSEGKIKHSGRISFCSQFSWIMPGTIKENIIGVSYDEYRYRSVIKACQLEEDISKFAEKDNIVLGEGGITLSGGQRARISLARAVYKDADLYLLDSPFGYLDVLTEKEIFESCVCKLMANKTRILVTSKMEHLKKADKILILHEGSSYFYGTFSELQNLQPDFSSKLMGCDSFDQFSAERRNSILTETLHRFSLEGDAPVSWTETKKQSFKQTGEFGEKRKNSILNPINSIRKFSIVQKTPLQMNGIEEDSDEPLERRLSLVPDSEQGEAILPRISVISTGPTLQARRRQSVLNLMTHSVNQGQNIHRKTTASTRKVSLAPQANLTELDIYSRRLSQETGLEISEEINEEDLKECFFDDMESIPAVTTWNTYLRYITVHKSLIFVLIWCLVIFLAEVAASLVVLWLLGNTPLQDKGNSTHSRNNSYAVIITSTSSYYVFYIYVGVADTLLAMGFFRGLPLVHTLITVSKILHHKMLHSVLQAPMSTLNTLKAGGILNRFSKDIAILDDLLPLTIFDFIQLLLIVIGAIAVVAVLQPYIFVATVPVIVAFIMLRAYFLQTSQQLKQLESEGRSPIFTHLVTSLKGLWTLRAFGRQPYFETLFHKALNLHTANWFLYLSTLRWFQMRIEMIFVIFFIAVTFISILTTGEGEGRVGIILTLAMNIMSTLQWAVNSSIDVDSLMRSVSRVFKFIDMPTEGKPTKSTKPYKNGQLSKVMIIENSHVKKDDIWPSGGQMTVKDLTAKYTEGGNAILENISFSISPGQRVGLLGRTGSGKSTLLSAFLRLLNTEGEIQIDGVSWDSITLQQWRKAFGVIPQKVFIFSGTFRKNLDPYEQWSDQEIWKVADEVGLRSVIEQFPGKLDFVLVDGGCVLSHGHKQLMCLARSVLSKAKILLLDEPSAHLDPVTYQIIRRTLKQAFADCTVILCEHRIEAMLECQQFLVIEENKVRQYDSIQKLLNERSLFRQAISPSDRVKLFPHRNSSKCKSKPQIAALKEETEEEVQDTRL

| Molecule | ability to effect secretion of mutant myocilin (mutant (Q368X) myocilin) | ability to effect secretion of mutant myocilin (mutant (Y437H) myocilin) | restoration of forskolin-dependent chloride transport [1] |
| --- | --- | --- | --- |
| OCC(O)CO [Glycerol, glycerol] | able to effect full-length myocilin secretion | able to effect full-length myocilin secretion | restored the ability of the mutant cells to exhibit forskolin-dependent chloride transport |
| [2H]O[2H] [deuterated water] |  |  | restored the ability of the mutant cells to exhibit forskolin-dependent chloride transport |
| C[N+](C)(C)[O-] [trimethylamine N-oxide] |  |  | restored the ability of the mutant cells to exhibit forskolin-dependent chloride transport |
| Gentamycin | did not effect secretion of mutant myocilin | did not effect secretion of mutant myocilin |  |
